According to patent US5681738A, “Use of 10-oxo-trans-8-decenoic acid in mushroom cultivation” (The Penn State Research Foundation, priority 1992, dated 1997):

Tested on: Agaricus bisporus mycelia
Test: Laccase activity of mycelia grown in potato dextrose yeast broth at 25° C.
Format: cell-based, Agaricus bisporus (hybrid off-white)
Description: The commercial mushroom spawn (hybrid off-white), Agaricus bisporus (Lange) Imbach, was obtained from Alpha Spawn Co., Avondale, Pa., and inoculated onto potato dextrose yeast (PDY) agar (Difco) and incubated at 25° C. A pure culture was obtained from the grain spawn grown on petri dishes and re-inoculated into PDY agar and maintained at 25° C. before use.
The mushroom culture was grown on PDY agar or in PDY broth, both containing 0.5% yeast extract. The broth was dispensed into flasks prior to autoclaving, 50 mL. per flask, while 5 mL of sterile ODA solutions were aseptically added into flasks before inoculation.
To prepare ODA solutions, about 18.4 mg (0.1 mmole) of 10-oxo-trans-8-decenoic acid prepared as described above were dissolved in i mL ethanol and diluted with deionized water to 100 mL to give a molar concentration of 10^-3 M, and then diluted in order to add 1.0 mL of the solutions to each flask to give the required final concentrations.
Sterile ODA solutions were aseptically added into the autoclaved agar medium to achieve the desired final ODA concentrations, and then the medium was dispensed into petri dishes, ca 30 ml per dish. The levels of ODA tested included 2×10^-4, 10^-4, 10^-5, 10^-6 and 10^-7 M for both PDY agar and broth. These flasks and dishes were inoculated with 1 mm mycelial plugs from 4-week old cultures and incubated statically at 25° C. for 5 weeks. Each week, ca 300 μL of broth was aseptically taken from the flasks for laccase assay, while the colony diameter of every petri dish was measured using a vernier caliper to calculate the linear growth of the culture.
The activity of laccase was assayed as described in Leonowicz et al., (1981). The reaction mixture consisted of 1.0 ml of 0.04M MES (2-[N-morpholino] ethanesulfonic acid, Sigma)-NaOH buffer, pH 5.3, 200 μL of 0.5 mM syringaldazine ([…], Sigma) in EtOH, and 100 μL of culture broth withdrawn from the flasks making up a final volume of 1.3 mL. The control mixture contained no culture broth. The change in absorbance was monitored for 5 mins at 525 nm. Laccase activity was expressed in units of kat, the conversion of 1 mole of syringaldazine per sec.
Methods for the estimation of total fungal growth include the measurement of dry matter, linear growth, carbon dioxide evolution, chitin, ATP as well as extracellular laccase activity (Cochrane, (1958); Wood, (1979)). In this research the linear growth rate was used to examine the growth of mushroom mycelia on agar plates, while the extracellular laccase activity and dry matter were determined to estimate the growth of mycelia in liquid cultures. Extracellular laccases (p-diphenol: oxygen oxidoreductase, EC 1.10.3.2) produced by various classes of fungi are reported to be involved in biotransformation of lignin and lignosulfonate (Anders et al., (1976)), as well as in the breakdown of cellulose by cellulase (Westermark et al., (1974a); Westermark et al., (1974b); Haars et al., (1980)). Although the role of laccase in growth and development of Agaricus bisporus is not well defined, it has been observed that laccase production correlated with mycelial biomass of this fungus (Wood, (1979); Matcham et al., (1985); Claydon et al., (1988)).

For O=C/C=C/CCCCCCC(=O)O [ODA, 10-oxo-trans-8-decenoic acid], the “mycelial growth by laccase activity and dry matter (in words)” value (10^-6 and 10^-5 M (0.184 and 1.84 ppm), liquid culture) was “stimulated”, the “LOG [Laccase activity (mkat/ml)]” value (ODA 2 × 10^-4 M (36.8 ppm), Week 1, control 0.49) was 0.25 LOG (mkat/ml) and the “LOG [Laccase activity (mkat/ml)]” value (ODA 2 × 10^-4 M (36.8 ppm), Week 2, control 1.19) was 1.84 LOG (mkat/ml). For the same compound, the “LOG [Laccase activity (mkat/ml)]” value (ODA 2 × 10^-4 M (36.8 ppm), Week 3, control 1.97) was 2.07 LOG (mkat/ml), the “LOG [Laccase activity (mkat/ml)]” value (ODA 2 × 10^-4 M (36.8 ppm), Week 4, control 2.37) was 2.15 LOG (mkat/ml) and the “LOG [Laccase activity (mkat/ml)]” value (ODA 2 × 10^-4 M (36.8 ppm), Week 5, control 2.74) was 2.38 LOG (mkat/ml). For the same compound, the “LOG [Laccase activity (mkat/ml)]” value (ODA 10^-4 M (18.4 ppm), Week 1, control 0.49) was 1.04 LOG (mkat/ml), the “LOG [Laccase activity (mkat/ml)]” value (ODA 10^-4 M (18.4 ppm), Week 2, control 1.19) was 2.13 LOG (mkat/ml) and the “LOG [Laccase activity (mkat/ml)]” value (ODA 10^-4 M (18.4 ppm), Week 3, control 1.97) was 2.29 LOG (mkat/ml). For the same compound, the “LOG [Laccase activity (mkat/ml)]” value (ODA 10^-4 M (18.4 ppm), Week 4, control 2.37) was 2.38 LOG (mkat/ml), the “LOG [Laccase activity (mkat/ml)]” value (ODA 10^-4 M (18.4 ppm), Week 5, control 2.74) was 2.64 LOG (mkat/ml) and the “LOG [Laccase activity (mkat/ml)]” value (ODA 10^-5 M (1.84 ppm), Week 1, control 0.49) was 1.63 LOG (mkat/ml). For the same compound, the “LOG [Laccase activity (mkat/ml)]” value (ODA 10^-5 M (1.84 ppm), Week 2, control 1.19) was 2.62 LOG (mkat/ml), the “LOG [Laccase activity (mkat/ml)]” value (ODA 10^-5 M (1.84 ppm), Week 3, control 1.97) was 2.90 LOG (mkat/ml) and the “LOG [Laccase activity (mkat/ml)]” value (ODA 10^-5 M (1.84 ppm), Week 4, control 2.37) was 3.20 LOG (mkat/ml). For the same compound, the “LOG [Laccase activity (mkat/ml)]” value (ODA 10^-5 M (1.84 ppm), Week 5, control 2.74) was 3.53 LOG (mkat/ml), the “LOG [Laccase activity (mkat/ml)]” value (ODA 10^-6 M (0.184 ppm), Week 1, control 0.49) was 1.16 LOG (mkat/ml) and the “LOG [Laccase activity (mkat/ml)]” value (ODA 10^-6 M (0.184 ppm), Week 2, control 1.19) was 2.34 LOG (mkat/ml). For the same compound, the “LOG [Laccase activity (mkat/ml)]” value (ODA 10^-6 M (0.184 ppm), Week 3, control 1.97) was 2.76 LOG (mkat/ml), the “LOG [Laccase activity (mkat/ml)]” value (ODA 10^-6 M (0.184 ppm), Week 4, control 2.37) was 3.07 LOG (mkat/ml) and the “LOG [Laccase activity (mkat/ml)]” value (ODA 10^-6 M (0.184 ppm), Week 5, control 2.74) was 3.43 LOG (mkat/ml). For the same compound, the “LOG [Laccase activity (mkat/ml)]” value (ODA 10^-7 M (0.0184 ppm), Week 1, control 0.49) was 0.73 LOG (mkat/ml), the “LOG [Laccase activity (mkat/ml)]” value (ODA 10^-7 M (0.0184 ppm), Week 2, control 1.19) was 2.15 LOG (mkat/ml) and the “LOG [Laccase activity (mkat/ml)]” value (ODA 10^-7 M (0.0184 ppm), Week 3, control 1.97) was 2.57 LOG (mkat/ml). The “LOG [Laccase activity (mkat/ml)]” value (ODA 10^-7 M (0.0184 ppm), Week 4, control 2.37) was 2.86 LOG (mkat/ml) and the “LOG [Laccase activity (mkat/ml)]” value (ODA 10^-7 M (0.0184 ppm), Week 5, control 2.74) was 3.08 LOG (mkat/ml).
